Measurements reported in US9643930B2, “Substituted indazole derivatives as in vitro MAO-B inhibitors” (“NTZ LAB” LTD., priority 2013, dated 2017).
Where two headings read alike, the source gives them in different places.

Experiments:
rat MAO-A = target: T1, rat MAO-A (Rattus norvegicus, UniProt P21396); assay: Rat MAO-A assay (Amplex Red fluorescence, rat liver mitochondria pre-treated with deprenyl); assay type: biochemical; details: for inhibition at 10 µM: read-out: rat MAO-A (rat liver mitochondria) % inhibition at 10 μM
T1 construct: from tissue; host or cells: rat liver mitochondria (male Sprague-Dawley rats)
T1 sequence (P21396 1-526): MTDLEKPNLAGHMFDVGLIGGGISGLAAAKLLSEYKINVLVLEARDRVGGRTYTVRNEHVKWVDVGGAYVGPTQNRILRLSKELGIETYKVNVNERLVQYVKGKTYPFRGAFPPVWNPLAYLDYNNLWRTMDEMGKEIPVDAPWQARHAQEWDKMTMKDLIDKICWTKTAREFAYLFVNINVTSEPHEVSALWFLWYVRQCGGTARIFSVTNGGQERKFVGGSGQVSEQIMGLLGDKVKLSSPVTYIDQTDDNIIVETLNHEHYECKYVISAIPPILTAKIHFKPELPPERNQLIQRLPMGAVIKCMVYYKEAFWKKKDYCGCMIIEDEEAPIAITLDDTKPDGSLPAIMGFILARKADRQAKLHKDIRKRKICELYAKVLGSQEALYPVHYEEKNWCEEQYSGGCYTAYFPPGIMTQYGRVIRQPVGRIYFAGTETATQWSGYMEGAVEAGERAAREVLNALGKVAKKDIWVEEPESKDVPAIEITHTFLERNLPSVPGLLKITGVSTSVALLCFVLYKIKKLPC

rat MAO-B = target: T2, rat MAO-B (Rattus norvegicus, UniProt P19643); assay: Rat MAO-B assay (Amplex Red fluorescence, rat liver mitochondria pre-treated with clorgyline 30 nM); assay type: biochemical; details: rat liver mitochondria pre-treated with clorgyline 30 nM; read-out: rat MAO-B (rat liver mitochondria) IC50
T2 construct: from tissue; host or cells: rat liver mitochondria (male Sprague-Dawley rats)
T2 sequence (P19643 1-520): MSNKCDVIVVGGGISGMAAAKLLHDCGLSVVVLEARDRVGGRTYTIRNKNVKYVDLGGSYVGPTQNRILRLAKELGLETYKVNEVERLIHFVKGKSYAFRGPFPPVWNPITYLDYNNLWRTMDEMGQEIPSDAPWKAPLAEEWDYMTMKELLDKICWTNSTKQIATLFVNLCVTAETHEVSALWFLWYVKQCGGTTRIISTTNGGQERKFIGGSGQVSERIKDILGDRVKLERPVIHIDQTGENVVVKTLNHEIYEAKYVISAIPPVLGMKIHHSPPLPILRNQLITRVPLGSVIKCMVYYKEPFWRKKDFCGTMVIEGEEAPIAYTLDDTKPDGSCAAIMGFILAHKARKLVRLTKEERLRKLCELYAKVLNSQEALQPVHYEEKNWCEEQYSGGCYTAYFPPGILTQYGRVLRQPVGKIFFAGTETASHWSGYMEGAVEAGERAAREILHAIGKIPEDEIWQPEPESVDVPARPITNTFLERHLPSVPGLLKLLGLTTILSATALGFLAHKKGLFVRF

human MAO-A = target: T3, human MAO-A (Homo sapiens, UniProt P21397); assay: Human MAO-A assay (recombinant enzyme, Amplex Red fluorescence); details: for inhibition at 10 µM: read-out: human MAO-A % inhibition at 10 μM
T3 sequence (P21397 1-527): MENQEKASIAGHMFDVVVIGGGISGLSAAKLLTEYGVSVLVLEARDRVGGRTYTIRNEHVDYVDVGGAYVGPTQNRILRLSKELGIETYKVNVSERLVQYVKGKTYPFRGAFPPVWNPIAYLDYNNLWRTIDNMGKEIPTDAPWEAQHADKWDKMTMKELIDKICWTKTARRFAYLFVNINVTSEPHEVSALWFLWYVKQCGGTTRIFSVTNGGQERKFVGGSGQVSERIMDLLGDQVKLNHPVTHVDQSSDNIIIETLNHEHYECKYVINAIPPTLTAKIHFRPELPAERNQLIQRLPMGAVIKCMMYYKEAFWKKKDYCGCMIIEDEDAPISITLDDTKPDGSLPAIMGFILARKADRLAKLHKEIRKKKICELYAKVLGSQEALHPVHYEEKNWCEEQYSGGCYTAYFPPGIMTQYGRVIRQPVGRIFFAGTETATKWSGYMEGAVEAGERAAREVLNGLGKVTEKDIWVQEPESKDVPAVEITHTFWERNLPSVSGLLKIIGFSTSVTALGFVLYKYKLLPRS

human MAO-B [1] = target: T4, human MAO-B (Homo sapiens, UniProt P27338); assay: Human MAO-B assay (recombinant enzyme, Amplex Red fluorescence); assay type: biochemical; parameters: purchased Sigma-Aldrich M7441; host or cells: baculovirus-infected insect cells (microsomal product); details: p-tyramine 150 μM
T4 sequence (P27338 1-520): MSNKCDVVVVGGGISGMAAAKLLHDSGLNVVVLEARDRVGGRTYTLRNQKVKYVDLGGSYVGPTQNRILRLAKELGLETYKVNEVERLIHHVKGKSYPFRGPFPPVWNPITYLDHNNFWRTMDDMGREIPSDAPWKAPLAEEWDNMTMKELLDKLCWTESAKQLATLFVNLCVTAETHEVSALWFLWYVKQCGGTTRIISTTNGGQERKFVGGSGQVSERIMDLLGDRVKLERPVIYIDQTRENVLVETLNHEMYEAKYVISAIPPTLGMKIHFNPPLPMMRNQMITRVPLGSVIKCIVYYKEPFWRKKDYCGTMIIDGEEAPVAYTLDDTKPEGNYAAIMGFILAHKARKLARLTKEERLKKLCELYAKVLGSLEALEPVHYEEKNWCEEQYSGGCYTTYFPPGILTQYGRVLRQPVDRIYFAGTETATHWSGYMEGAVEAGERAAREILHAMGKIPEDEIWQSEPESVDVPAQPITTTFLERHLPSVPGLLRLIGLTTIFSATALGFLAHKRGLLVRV

[2] = Solubility in organic solvents and in water (physicochemical properties, Table 1); details: for solubility: water, aqueous buffer
[3] = Storage stability (physicochemical properties, Table 1); details: specified storage temperature (room temperature)
human MAO-B [4] = target: T4, human MAO-B; assay: MAO-B reactivation experiment (time-dependent inhibition, reversibility); details: compound at IC80; p-tyramine raised from 10 μM to 1.0 mM; monitored 5 hours
human MAO-B [5] = target: T4, human MAO-B; assay: Assay for mode of MAO-B inhibition (substrate-dependent kinetics, Lineweaver-Burk plots); assay type: biochemical; parameters: purchased Sigma-Aldrich M7441; host or cells: baculovirus-infected insect cells (microsomal product); details: p-tyramine 0.05-[…]; inhibitor 0.1-10 nM; n=2
[6] = rat liver mitochondria, substrate p-tyramine, read-out: rat MAO-A (rat liver mitochondria) IC50

IC50 (rat MAO-A; [6])	inhibition at 10 µM (rat MAO-A; rat liver mitochondria)	IC50 (rat MAO-B)	melting point	IC50 (human MAO-A)	inhibition at 10 µM (human MAO-A)	IC50 (human MAO-B [1])	IC50 (human MAO-A; read-out: human MAO-A IC50, recombinant human enzyme, p-tyramine 150 μM)	SMILES	IC50 (rat MAO-A)	Solubility in water ([2]; hot water)	Solubilty inorganic solvents ([2]; in DMSO, DMF, MeOH, EtOH, i-PrOH, n-BuOH, t-BuOH, acetonitrile (Soluble))	Solubilty inorganic solvents ([2]; in petroleum ether, Et2O and n-hexane (Insoluble))	solubility ([2]; at 22.5° C., pH 7.4)	solubility ([2]; at 90° C., pH 7.4, pH 1.0)	Stability [3]	reversibility of MAO-B inhibition (enzyme reactivation after raising substrate) (human MAO-B [4])	mode of MAO-B inhibition (Lineweaver-Burk plots) (human MAO-B [5])
< 10000 nM	60%	941 ± 51 nM	272.2 to 273.4 °C	> 10000 nM	33%	123 ± 16 nM	–	O=C(Nc1ccc(O)c(Cl)c1)c1ccc2[nH]ncc2c1 [Example 5, N-(3-chloro-4-hydroxyphenyl)-1H-indazole-5-carboxamide]	–	–	–	–	–	–	–	–	–
–	–	–	–	–	–	–	–	C[C@H](NCc1ccc(OCc2cccc(F)c2)cc1)C(N)=O [safinamide, reference compound]	–	–	–	–	–	–	–	The same result was observed	–
> 10000 nM	24%	43.1 ± 4.2 nM	279.6 to 281.6 °C	–	62%	4.36 ± 0.08 nM	8790 ± 200 nM	COc1cc(NC(=O)c2ccc3[nH]ncc3c2)ccc1Cl [Example 4, N-(4-chloro-3-methoxy)-1H-indazole-5-carboxamide]	–	–	–	–	–	–	–	–	–

SMILES	IC50 (rat MAO-A; [6])	inhibition at 10 µM (rat MAO-A; rat liver mitochondria)	IC50 (rat MAO-B)	melting point	IC50 (human MAO-A)	inhibition at 10 µM (human MAO-A)	IC50 (human MAO-B [1])	IC50 (human MAO-A; read-out: human MAO-A IC50, recombinant human enzyme, p-tyramine 150 μM)	IC50 (rat MAO-A)	Solubility in water ([2]; hot water)	Solubilty inorganic solvents ([2]; in DMSO, DMF, MeOH, EtOH, i-PrOH, n-BuOH, t-BuOH, acetonitrile (Soluble))	Solubilty inorganic solvents ([2]; in petroleum ether, Et2O and n-hexane (Insoluble))	solubility ([2]; at 22.5° C., pH 7.4)	solubility ([2]; at 90° C., pH 7.4, pH 1.0)	Stability [3]	reversibility of MAO-B inhibition (enzyme reactivation after raising substrate) (human MAO-B [4])	mode of MAO-B inhibition (Lineweaver-Burk plots) (human MAO-B [5])
Cn1ncc2cc(C(=O)Nc3ccc(Cl)c(Cl)c3)ccc21 [Example 13]	–	42%	1.32 ± 0.09 nM	–	–	37%	–	–	> 10000 nM	Very slightly soluble in hot water	Soluble (0.01-0.03 mL per 1.0 mg) in DMSO, DMF,	Insoluble (>10 mL per 1.0 mg) in petroleum ether,	< 0.01 µg/mL	< 0.035 µg/mL	Stable under specified storage temperature (room	reversible MAO-B inhibitors	linear and intersected at the y-axis with the plot for the uninhibited enzyme
